Test results taken from the NIST ThermoML archive (doi:10.1021/je9003806).

Assay: excess molar enthalpy (molar enthalpy of mixing); xn = mol fraction of the nth substance listed
Settings: 101.3 kPa, Liquid, Flow calorimetry

CCOC(=O)CC(=O)OCC [diethyl 1,3-propanedioate] + CC(C)O
excess molar enthalpy [kcal/mol]
Settings	288.2 K	298.2 K	313.2 K	328.2 K
x1 = 0.0511	0.145	0.151	0.158	0.163
x1 = 0.1001	0.244	0.263	0.277	0.292
x1 = 0.1511	0.322	0.35	0.378	0.39
x1 = 0.2012	0.387	0.419	0.449	0.473
x1 = 0.2494	0.431	0.467	0.51	0.531
x1 = 0.3015	0.47	0.51	0.557	0.576
x1 = 0.3507	0.5	0.542	0.586	0.611
x1 = 0.3998	0.516	0.56	0.606	0.63
x1 = 0.4484	0.523	0.569	0.616	0.639
x1 = 0.5003	0.524	0.566	0.611	0.637
x1 = 0.5513	0.519	0.56	0.6	0.62
x1 = 0.6007	0.501	0.539	0.582	0.597
x1 = 0.6478	0.483	0.52	0.555	0.561
x1 = 0.6977	0.449	0.482	0.511	0.516
x1 = 0.7508	0.398	0.431	0.451	0.454
x1 = 0.8007	0.345	0.379	0.391	0.387
x1 = 0.8468	0.286	0.309	0.32	0.302
x1 = 0.9023	0.185	0.219	0.213	0.202
x1 = 0.9537	0.0963	0.111	0.104	0.0935

CCOC(=O)CC(=O)OCC [diethyl 1,3-propanedioate] + CO
excess molar enthalpy [kcal/mol]
Settings	288.2 K	298.2 K	313.2 K	328.2 K
x1 = 0.05	0.066	0.0734	0.081	0.0872
x1 = 0.0996	0.123	0.133	0.146	0.161
x1 = 0.1496	0.167	0.182	0.203	0.221
x1 = 0.2011	0.205	0.224	0.249	0.274
x1 = 0.2515	0.236	0.259	0.286	0.316
x1 = 0.3009	0.261	0.286	0.318	0.349
x1 = 0.3506	0.281	0.307	0.343	0.376
x1 = 0.3988	0.299	0.325	0.361	0.394
x1 = 0.4486	0.31	0.335	0.374	0.407
x1 = 0.4993	0.313	0.341	0.378	0.408
x1 = 0.55	0.315	0.343	0.376	0.409
x1 = 0.5995	0.307	0.337	0.369	0.396
x1 = 0.6464	0.3	0.323	0.355	0.38
x1 = 0.698	0.282	0.304	0.332	0.353
x1 = 0.7453	0.261	0.283	0.303	0.316
x1 = 0.7969	0.234	0.243	0.26	0.278
x1 = 0.8536	0.19	0.184	0.202	0.213
x1 = 0.903	0.139	0.14	0.144	0.145
x1 = 0.95	0.0801	0.0772	0.0719	0.0473

CCOC(=O)CC(=O)OCC [diethyl 1,3-propanedioate] + CCO
excess molar enthalpy [kcal/mol]
Settings	288.2 K	298.2 K	313.2 K	328.2 K
x1 = 0.0501	0.0949	0.101	0.114	0.119
x1 = 0.1004	0.168	0.185	0.205	0.222
x1 = 0.1491	0.233	0.247	0.279	0.304
x1 = 0.1995	0.282	0.301	0.337	0.366
x1 = 0.2507	0.318	0.346	0.387	0.42
x1 = 0.2985	0.348	0.379	0.425	0.46
x1 = 0.3517	0.374	0.407	0.454	0.491
x1 = 0.399	0.39	0.425	0.473	0.51
x1 = 0.4509	0.401	0.435	0.486	0.522
x1 = 0.4985	0.406	0.442	0.489	0.527
x1 = 0.5503	0.404	0.437	0.485	0.517
x1 = 0.6013	0.395	0.428	0.469	0.499
x1 = 0.6504	0.38	0.41	0.448	0.477
x1 = 0.6967	0.359	0.386	0.422	0.442
x1 = 0.7465	0.328	0.352	0.38	0.396
x1 = 0.8002	0.284	0.302	0.322	0.333
x1 = 0.8497	0.232	0.242	0.259	0.269
x1 = 0.9027	0.164	0.172	0.179	0.186
x1 = 0.9498	0.0896	0.0946	0.105	0.101

CCOC(=O)CC(=O)OCC [diethyl 1,3-propanedioate] + CCCO
excess molar enthalpy [kcal/mol]
Settings	288.2 K	298.2 K	313.2 K	328.2 K
x1 = 0.0499	0.116	0.128	0.138	0.143
x1 = 0.1004	0.207	0.225	0.25	0.266
x1 = 0.1588	–	0.314	0.345	0.371
x1 = 0.209	–	0.376	0.415	0.447
x1 = 0.2513	0.381	0.418	0.458	0.491
x1 = 0.3	0.415	0.456	0.5	0.536
x1 = 0.3491	0.443	0.485	0.533	0.571
x1 = 0.3982	0.462	0.504	0.554	0.593
x1 = 0.451	0.472	0.515	0.565	0.603
x1 = 0.499	0.478	0.52	0.567	0.602
x1 = 0.5503	0.474	0.512	0.559	0.592
x1 = 0.6002	0.462	0.497	0.539	0.567
x1 = 0.6479	0.445	0.476	0.511	0.539
x1 = 0.6986	0.419	0.447	0.47	0.493
x1 = 0.7525	0.376	0.399	0.418	0.434
x1 = 0.797	0.334	0.352	0.361	0.375
x1 = 0.8506	0.269	0.28	0.284	0.294
x1 = 0.9003	0.196	0.197	0.205	0.204
x1 = 0.9527	0.105	0.104	0.103	0.0999
